Results from patent US20220008359A1, “COMBINATION ANTI-CANCER PRODUCTS AND METHODS” (priority 2020, published 2022).
Marks after values point to notes of the source that are not given here.

What was measured:
[1] = system: CD8+ T cells; test: Viability and effects on CD8+ T cells after 72 hours of exposure; format: cell-based
Method: (§1) In vitro assays designed to assess the viability and effects of GZ17-6.02, GZ17-6.02.02, its metabolites as single agents, and the metabolites in combination effects of CD8+ T cells and CD56+ natural killer cells after 72 hours of exposure. Test agents used included 6.02 (77% Isovanillin+13% Harmine+10% Curcumin), 6.02.02 (77% Isovanillin+13% Harmine+8.5% Curcumin sulfate tetrabutylammonium salt+1.5% Curcumin β-D-glucuronide), Curcumin metabolites combination (85% Curcumin sulfate tetrabutylammonium salt+15% Curcumin β-D-glucuronide), Curcumin metabolites single agents (single agent Curcumin sulfate tetrabutylammonium salt, or single agent Curcumin 3-D-glucuronide).

[2] = system: CD56+ natural killer cells; test: Viability and effects on CD56+ natural killer cells after 72 hours of exposure; format: cell-based
Method: as §1

[3] = system: H1975 cells (wild type sensitive); test: In-cell immunostaining of protein expression and phosphorylation, H1975 wild type cells; format: cell-based, human; details: 1975 WT; 6 h; GZ17-6.02 2 mM final curcumin, osimertinib 100 nM; vehicle 100%
Method: (§2) […] Cells were fixed in place 6 hours after treatment and immunostaining of single cells performed to determine the levels of each protein/phosphor-protein (n=3+/−SD). * p<0.05 less than vehicle control; # p<0.05 greater than vehicle control.
(§3) Assessments of protein expression and protein phosphorylation. Multi-channel fluorescence HCS microscopes perform true in-cell western blotting. Three independent cultures derived from three thawed vials of cells of a tumor were sub-cultured into individual 96-well plates. Twenty-four hours after plating, the cells are transfected with a control plasmid or a control siRNA, or with an empty vector plasmid or with plasmids to express various proteins. After another 24 hours, the cells are ready for drug exposure(s). At various time-points after the initiation of drug exposure, cells are fixed in place using paraformaldehyde and using Triton X100 for permeabilization. Standard immunofluorescent blocking procedures are employed, followed by incubation of different wells with a variety of validated primary antibodies and subsequently validated fluorescent-tagged secondary antibodies are added to each well. The microscope determines the background fluorescence in the well and in parallel randomly determines the mean fluorescent intensity of 100 cells per well.

[4] = system: afatinib-resistant (AR) H1975 cells; test: In-cell immunostaining of protein expression and phosphorylation, afatinib-resistant H1975 cells; format: cell-based, human; details: 1975 AR; 6 h; GZ17-6.02 2 mM final curcumin, osimertinib 100 nM; vehicle 100%
Method: as §2
Generation of erlotinib, afatinib and osimertinib-resistant cells. Cells were incubated in vitro with increasing concentrations of vehicle control or erlotinib or osimertinib until after ˜6 weeks the HCC827 and H1975 and H1650 cells grew with similar kinetics to sensitive cells in either erlotinib ([…]) or osimertinib ([…]), respectively. Afatinib-resistant cells were created in vivo by repeated high dosing until tumors disappeared and then regrew, as previously described.
as §3

[5] = system: H1650 cells (wild type); test: In-cell immunostaining of protein expression and phosphorylation, H1650 wild type cells; format: cell-based, human; details: 1650 WT; 6 h; GZ17-6.02 2 mM final curcumin, osimertinib 100 nM; vehicle 100%
Method: as §3

[6] = system: H1975 cells; test: Trypan blue cell death assay, H1975 cells (wild type, afatinib- and osimertinib-resistant); format: cell-based, human; details: osimertinib-resistant H1975 and H1650 cells, 24 h
Method: Detection of cell death by trypan blue assay. Cells were treated with vehicle control or with drugs alone or in combination for 24 h. At the indicated time points cells were harvested by trypsinization and centrifugation. Cell pellets were resuspended in PBS and mixed with trypan blue agent. Viability was determined microscopically using a hemocytometer. Five hundred cells from randomly chosen fields were counted and the number of dead cells was counted and expressed as a percentage of the total number of cells counted.
H1650, wild type sensitive and afatinib resistant (AR) H1975 and erlotinib resistant (ER) HCC827 cells were treated with vehicle, erlotinib (500 nM), afatinib (500 nM), GZ17-6.02 (2 mM curcumin final) or the drugs in combination for 24 h. […] In a separate study, cells were treated with vehicle, osimertinib (100 nM), GZ17-6.02 (2 mM curcumin final) or the drugs in combination for 24 h.
Osimertinib-resistant H1975 and H1650 cells were generated as described and studied to determine if GZ17-6.02 interacts with pemetrexed to kill NSCLC cells. H1975 and H1650 cells (wild type sensitive and osimertinib resistant (OR)) were treated with vehicle, erlotinib (500 nM), afatinib (500 nM), osimertinib (100 nM), GZ17-6.02 (2 mM curcumin final) or the drugs in combination for 24 h. […]

Q: Which results are given for `COc1cc(/C=C/C(=O)CC(=O)/C=C/c2ccc(O[C@@H]3O[C@H](C(=O)O)[C@@H](O)[C@H](O)[C@H]3O)c(OC)c2)ccc1O` [Curcumin B-D-Glucuronide, Curcumin β-D-glucuronide]?
A: CD8 + T Cells % of control ([1]; 0.03 μM): 124.35 % of control; CD8 + T Cells % of control ([1]; 0.3 μM): 114.54 % of control; CD8 + T Cells % of control ([1]; 3 μM): 118.58 % of control; CD8 + T Cells % of control ([1]; 30 μM): 110.23 % of control; CD56 + NK Cells % of control ([2]; 0.03 μM): 98.08 % of control; CD56 + NK Cells % of control ([2]; 0.3 μM): 100.22 % of control; CD56 + NK Cells % of control ([2]; 3 μM): 93.81 % of control; CD56 + NK Cells % of control ([2]; 30 μM): 95.28 % of control

Q: What does the source list for `C=CC(=O)Nc1cc(Nc2nccc(-c3cn(C)c4ccccc34)n2)c(OC)cc1N(C)CCN(C)C` [OSI]?
A: ATG5 [3]: 111%; Beclin1 [3]: 113# %; CD95 [3]: 102%; CHOP [3]: 109%; ERBB1 [3]: 99%; ERBB2 [3]: 100%; ERBB3 [3]: 101%; ERBB4 [3]: 99%; ERK2 [3]: 99%; FAS-L [3]: 101%; FLIP-s [3]: 85* %; GRP78 [3]: 119# %; HDAC1 [3]: 97%; HDAC2 [3]: 99%; HDAC3 [3]: 96%; HDAC4 [3]: 93%; HDAC5 [3]: 100%; HDAC6 [3]: 105%; HDAC7 [3]: 103%; HDAC8 [3]: 99%; HDAC9 [3]: 98%; HDAC10 [3]: 99%; HDAC11 [3]: 96%; IDO1 [3]: 99%; JNK1/2 [3]: 101%; MHCA [3]: 96%; NOXA [3]: 100%; ODC [3]: 100%; P-AKT T308 [3]: 81* %; P-AMPKα T172 [3]: 101%; P-ATG13 S318 [3]: 126# %; P-ATM S1980 [3]: 100%; P-B1 [3]: 73* %; P-B2 [3]: 101%; P-B3 [3]: 100%; P-B4 [3]: 102%; P-ERK1/2 [3]: 70* %; P-JAK2 [3]: 83* %; P-JNK1/2 [3]: 89%; P-MEK1/2 [3]: 83* %; P-NFκB S536 [3]: 100%; P-PDGFRβ [3]: 89%; P-PERK T980 [3]: 109%; P-SRC Y416 [3]: 95%; P-SRC Y527 [3]: 102%; P-STAT3 Y705 [3]: 92%; P-STAT5 Y694 [3]: 88%; P-TAZ S89 [3]: 114# %; P-ULK1 S317 [3]: 105%; P-ULK1 S757 [3]: 63* %; P-YAP S127 [3]: 113# %; P-c-KIT [3]: 99%; P-c-MET [3]: 92%; P-eIF2α S51 [3]: 109%; P-mTOR S2448 [3]: 68* %; P-mTOR S2481 [3]: 68* %; P-β-catenin [3]: 111%; PD-L1 [3]: 99%; PD-L2 [3]: 97%; PDGFRβ [3]: 100%; PP1 [3]: 104%; PUMA [3]: 99%; TAZ [3]: 100%; Total ERK2 [3]: 99%; YAP [3]: 99%; c-KIT [3]: 98%; c-MET [3]: 101%; p70 S6K T389 [3]: 92%; β-catenin [3]: 98%; ATG5 [4]: 105%; Beclin1 [4]: 109%; CHOP [4]: 102%; ERBB1 [4]: 100%; ERBB2 [4]: 102%; ERBB3 [4]: 101%; ERBB4 [4]: 98%; FLIP-s [4]: 79* %; GRP78 [4]: 103# %; NOXA [4]: 100%; P-AKT T308 [4]: 86* %; P-AMPKα T172 [4]: 102%; P-ATG13 S318 [4]: 121# %; P-ATM S1980 [4]: 101%; P-B1 [4]: 76* %; P-B2 [4]: 101%; P-B3 [4]: 100%; P-B4 [4]: 97%; P-MEK1/2 [4]: 82* %; P-PERK T980 [4]: 111%; P-STAT3 Y705 [4]: 92%; P-STAT5 Y694 [4]: 95%; P-ULK1 S317 [4]: 99%; P-ULK1 S757 [4]: 65* %; P-eIF2α S51 [4]: 105%; P-mTOR S2448 [4]: 66* %; P-mTOR S2481 [4]: 71* %; PP1 [4]: 112%; PUMA [4]: 98%; Total ERK2 [4]: 100%; p70 S6K T389 [4]: 99%; ATG5 [5]: 106%; Beclin1 [5]: 103%; CD95 [5]: 100%; CHOP [5]: 106%; ERBB1 [5]: 98%; ERBB2 [5]: 94%; ERBB3 [5]: 100%; ERBB4 [5]: 100%; ERK2 [5]: 100%; FAS-L [5]: 104%; FLIP-s [5]: 102%; GRP78 [5]: 111%; HDAC1 [5]: 99%; HDAC2 [5]: 98%; HDAC3 [5]: 98%; HDAC4 [5]: 101%; HDAC5 [5]: 99%; HDAC6 [5]: 98%; HDAC7 [5]: 99%; HDAC8 [5]: 101%; HDAC9 [5]: 100%; HDAC10 [5]: 98%; HDAC11 [5]: 100%; IDO1 [5]: 100%; JNK1/2 [5]: 104%; MHCA [5]: 103%; NOXA [5]: 101%; ODC [5]: 104%; P-AKT T308 [5]: 90%; P-AMPKα T172 [5]: 98%; P-ATG13 S318 [5]: 115# %; P-ATM S1980 [5]: 98%; P-B1 [5]: 61* %; P-B2 [5]: 97%; P-B3 [5]: 96%; P-B4 [5]: 96%; P-ERK1/2 [5]: 82* %; P-JAK2 [5]: 86* %; P-JNK1/2 [5]: 91%; P-MEK1/2 [5]: 97%; P-NFκB S536 [5]: 83* %; P-PDGFRβ [5]: 93%; P-PERK T980 [5]: 104%; P-SRC Y416 [5]: 83* %; P-SRC Y527 [5]: 105%; P-STAT3 Y705 [5]: 95%; P-STAT5 Y694 [5]: 98%; P-TAZ S89 [5]: 101%; P-ULK1 S317 [5]: 107%; P-ULK1 S757 [5]: 81* %; P-YAP S127 [5]: 102%; P-c-KIT [5]: 92%; P-c-MET [5]: 94%; P-eIF2α S51 [5]: 114%; P-mTOR S2448 [5]: 96%; P-mTOR S2481 [5]: 87* %; P-β-catenin [5]: 102%; PD-L1 [5]: 97%; PD-L2 [5]: 97%; PDGFRβ [5]: 106%; PP1 [5]: 103%; PUMA [5]: 100%; TAZ [5]: 101%; Total ERK2 [5]: 100%; YAP [5]: 98%; c-KIT [5]: 100%; c-MET [5]: 98%; p70 S6K T389 [5]: 99%; β-catenin [5]: 101%

Q: For `C#Cc1cccc(Nc2ncnc3cc(OCCOC)c(OCCOC)cc23)c1` [erlotinib, Erlotinib], which “ability to enhance GZ17-6.02 killing” value [6] is on record?
A: abolished

Q: For `C=CC(=O)Nc1cc(Nc2nccc(-c3cn(C)c4ccccc34)n2)c(OC)cc1N(C)CCN(C)C` [osimertinib, Osimertinib], which “ability to enhance GZ17-6.02 killing” value [6] is on record?
A: abolished

Q: For “Curcumin sulfate tetrabutylammonium salt”, which “CD8 + T Cells % of control” value ([1]; 0.03 μM) is on record?
A: 107.62 % of control

Q: And the “CD8 + T Cells % of control” value ([1]; 0.3 μM)?
A: 170.61 % of control

Q: And the “CD8 + T Cells % of control” value ([1]; 3 μM)?
A: 154.26 % of control

Q: And the “CD8 + T Cells % of control” value ([1]; 30 μM)?
A: 143.23 % of control

Q: What about the “CD56 + NK Cells % of control” value ([2]; 0.03 μM) of the same molecule?
A: 104.14 % of control

Q: And the “CD56 + NK Cells % of control” value ([2]; 0.3 μM)?
A: 103.40 % of control

Q: What about the “CD56 + NK Cells % of control” value ([2]; 3 μM) of the same molecule?
A: 110.77 % of control

Q: What about the “CD56 + NK Cells % of control” value ([2]; 30 μM) of the same molecule?
A: 107.76 % of control
